The conditions of series [1]: 303.15 K; 101.33 kPa; Liquid; Capillary tube (Ostwald / Ubbelohde) method.
A short description of series [2]: mn = molality of the nth substance listed, in mol/kg. To be noted: 303.15 K, 101 kPa, Liquid, Capillary tube (Ostwald / Ubbelohde) method.

Numbers after ± are expanded uncertainties.

Consider `C1COCCO1` [1,4-dioxane], for which the viscosity – broadly, the resistance of a fluid to flow – in series [1] turned out to be 1.075 ± 0.0079 mPa·s.
As for `CCCCN` [1-butanamine], the viscosity in series [1] amounted to 0.4442 ± 0.0054 mPa·s.
With `CCCCNCCCC` [dibutylamine], the viscosity in series [1] amounted to 0.7584 ± 0.0071 mPa·s.
As for `CCCNCCC` [dipropylamine], the viscosity in series [1] is 0.5118 ± 0.0058 mPa·s.
On the same count and under the same terms, with `CCCN` [propan-1-amine] the figure was 0.3527 ± 0.005 mPa·s; with `C1CCOC1` [tetrahydrofuran], 0.326 ± 0.0047 mPa·s; with `CCCCN(CCCC)CCCC` [tributylamine], 1.167 ± 0.0097 mPa·s.
Consider `CCCCN(CCCC)CCCC` [tributylamine] + C1CCOC1, for which the viscosity was 0.3385 ± 0.0047 mPa·s in series [2] (m1 = 0.1637); 0.3517 ± 0.0048 mPa·s in series [2] (m1 = 0.3071); 0.3637 ± 0.0048 mPa·s in series [2] (m1 = 0.4107); 0.3764 ± 0.0049 mPa·s in series [2] (m1 = 0.5836); 0.3894 ± 0.0049 mPa·s in series [2] (m1 = 0.7131); 0.4036 ± 0.005 mPa·s in series [2] (m1 = 0.9025). The viscosity is 0.4181 ± 0.005 mPa·s in series [2] (m1 = 1.125), 0.4323 ± 0.0051 mPa·s in series [2] (m1 = 1.204) and 0.4444 ± 0.0051 mPa·s in series [2] (m1 = 1.31).
On to `CCCCN(CCCC)CCCC` [tributylamine] + C1COCCO1, for which the viscosity worked out at 1.062 ± 0.0078 mPa·s in series [2] (m1 = 0.1229); 1.05 ± 0.0078 mPa·s in series [2] (m1 = 0.2173); 1.033 ± 0.0077 mPa·s in series [2] (m1 = 0.3227); 1.023 ± 0.0077 mPa·s in series [2] (m1 = 0.4476); 1.008 ± 0.0076 mPa·s in series [2] (m1 = 0.5768); 0.9912 ± 0.0075 mPa·s in series [2] (m1 = 0.7655). The results for the viscosity in series [2] (m1 = 0.8789), in series [2] (m1 = 1.028) and in series [2] (m1 = 1.179) were 0.9804 ± 0.0075 mPa·s, 0.9659 ± 0.0074 mPa·s and 0.9569 ± 0.0074 mPa·s, respectively.
Take `CCN(CC)CC` [triethylamine]: in series [1], the viscosity was determined as 0.3296 ± 0.0049 mPa·s.
Turning to `CCN(CC)CC` [triethylamine] + C1CCOC1, the viscosity in series [2] (m1 = 0.1482) turned out to be 0.327 ± 0.0047 mPa·s; in series [2] (m1 = 0.3064), 0.3293 ± 0.0047 mPa·s; in series [2] (m1 = 0.4546) it was 0.3307 ± 0.0047 mPa·s; in series [2] (m1 = 0.588) it was 0.3315 ± 0.0047 mPa·s; in series [2] (m1 = 0.7856), 0.3361 ± 0.0047 mPa·s; in series [2] (m1 = 0.8993), 0.3349 ± 0.0047 mPa·s. The viscosity in series [2] (m1 = 1.056) is reported as 0.3376 ± 0.0048 mPa·s; in series [2] (m1 = 1.24), 0.3386 ± 0.0048 mPa·s; in series [2] (m1 = 1.418) it was 0.341 ± 0.0048 mPa·s.
With `CCN(CC)CC` [triethylamine] + C1COCCO1, the viscosity stood at 1.054 ± 0.0078 mPa·s in series [2] (m1 = 0.159); 1.042 ± 0.0077 mPa·s in series [2] (m1 = 0.2697); 1.018 ± 0.0076 mPa·s in series [2] (m1 = 0.4098); 0.998 ± 0.0075 mPa·s in series [2] (m1 = 0.5388); 0.98 ± 0.0074 mPa·s in series [2] (m1 = 0.6616); 0.955 ± 0.0073 mPa·s in series [2] (m1 = 0.8419). Moreover, the viscosity is on record as 0.932 ± 0.0072 mPa·s in series [2] (m1 = 0.9909), 0.914 ± 0.0071 mPa·s in series [2] (m1 = 1.135) and 0.894 ± 0.0071 mPa·s in series [2] (m1 = 1.27).
Turning to `CCCN(CCC)CCC` [tripropylamine], the viscosity in series [1] is reported as 0.5977 ± 0.0062 mPa·s.
`CCCN(CCC)CCC` [tripropylamine] + C1CCOC1: the viscosity is reported as 0.3305 ± 0.0047 mPa·s in series [2] (m1 = 0.1317); 0.3364 ± 0.0047 mPa·s in series [2] (m1 = 0.2429); 0.3397 ± 0.0047 mPa·s in series [2] (m1 = 0.3465); 0.3447 ± 0.0048 mPa·s in series [2] (m1 = 0.4545); 0.3523 ± 0.0048 mPa·s in series [2] (m1 = 0.5811); 0.3577 ± 0.0048 mPa·s in series [2] (m1 = 0.6842). Further, the results for the viscosity in series [2] (m1 = 0.8378), in series [2] (m1 = 0.9371) and in series [2] (m1 = 1.114) were 0.3607 ± 0.0048 mPa·s, 0.3681 ± 0.0049 mPa·s and 0.3753 ± 0.0049 mPa·s, respectively.
For `CCCN(CCC)CCC` [tripropylamine] + C1COCCO1, the viscosity came out at 1.06 ± 0.0078 mPa·s in series [2] (m1 = 0.1093); 1.045 ± 0.0077 mPa·s in series [2] (m1 = 0.2293); 1.032 ± 0.0077 mPa·s in series [2] (m1 = 0.3509); 1.022 ± 0.0076 mPa·s in series [2] (m1 = 0.4408); 1.007 ± 0.0076 mPa·s in series [2] (m1 = 0.5919); 0.9934 ± 0.0075 mPa·s in series [2] (m1 = 0.7147). Besides, the viscosity in series [2] (m1 = 0.8383) is given as 0.9807 ± 0.0075 mPa·s; in series [2] (m1 = 0.9836), 0.9694 ± 0.0074 mPa·s; in series [2] (m1 = 1.151) it was 0.9571 ± 0.0074 mPa·s.

The values above are taken from the NIST ThermoML archive (doi:10.1016/j.tca.2009.07.008).
